Drawing on patent US20230331715A1, “SPIRO[3.3]HEPTANE DERIVATIVES FOR THE TREATMENT AND PROPHYLAXIS OF HEPATITIS B VIRUS INFECTION” (priority 2020, published 2023), this text covers IC50 and CC50 for 19 compounds.

Common to all, as to format: cell-based
One data set concerns HBsAg. Kind of data set: PHH HBV natural infection assay, HBsAg (alphalisa). As to the method:
(§1) Detailed procedures regarding primary human hepatocyte (PHH) HBV natural infection assay are described as below. One tube of frozen PHH (10 million cells) is thawed in 37° C. water bath and then transferred to 20 mL of PHH thawing medium (Sigma, InVitroGRO HT Medium, Cat. S03319) with gently mixing. The cells were then centrifuged at […] for 5 min, the supernatant was discarded and the tube was refilled with 25 mL of PHH plating medium (Sigma, InVitroGRO CP Medium, Cat. S03317). The tube was shaken very gently to re-suspend all cells, and then 50 µl of cells were transferred to each well 384-well collagen I coated plate with appropriate liquid handling equipment, e.g. Integra VIAFLO384 or Agilent Bravo. The cells were then cultured for 24 hours in a cell incubator. For HBV infection, after PHH attachment on the culture plate, the plating medium was removed and replenished with PHH culture medium containing HBV virus. The PHH culture medium was prepared with Dulbecco’s Modified Eagle Medium (DMEM)/F12 (1: 1 in volume ratio) containing 10% fetal bovine serum (Gibco, Cat. 10099141), 5 ng/mL human epidermal growth factor (Gibco, Cat.PHG0311L), 20 ng/mL dexamethasone (Sigma, Cat.D4902-100mg), 250 ng/mL human recombinant insulin (Gibco, Cat.41400045) and 100 U/mL penicillin. HBV virus at 200 genome equivalent (GE) per cell with 4% PEG8000 (Sigma, Cat.P1458) containing culture medium were added to the PHH culture medium for infection. The cells were then cultured for 24 hours in cell incubator. Then the cell culture supernatant was removed. The HBV-infected PHH were cultured with sandwich culture method with PHH culture medium containing 1% DMSO and 0.25 mg/mL matrix gel for 72 hours. The supernatant was then refreshed with PHH culture medium containing different concentrations of testing compounds for two times with 72-hour interval. At the end of treatment, the supernatant was collected for viral markers measurements, including HBsAg, HBeAg, HBV DNA and cytotoxicity. HBsAg and HBeAg were detected using alphalisa method using their specific antibodies. For HBV DNA detection, HBV DNA Quantitative Fluorescence Diagnostic Kit (Sansure Biotech Inc.) was used following the manufacture’s protocol. Cytotoxicity was determined using Cell Counting Kit-8 (CCK8, Dojindo Molecular Technologies, Inc.).
(§2) The compounds of the present invention were tested for their capacity to inhibit HBsAg and HBeAg as described herein.

A further data set deals with HBeAg. Kind of data set: PHH HBV natural infection assay, HBeAg (alphalisa). The procedure: as §1, §2
Background: In Alpha technology, singlet oxygen from a donor bead excites a nearby acceptor bead.

A short description of data set [1]: Cytotoxicity in PHH natural infection assay (Cell Counting Kit-8). The settings on record: human; HBV-infected PHH, CCK8, compound refreshed two times with 72-hour interval. The procedure:
as §1
A general note: Tetrazolium assays rely on reduction of a dye to a coloured formazan, in cell work by metabolically active cells.

Setting [2] is: Hepatitis B virus, 72 h, read-out: HBsAg IC50, HBV-infected PHH, culture supernatant, compound refreshed two times with 72-hour interval, alphalisa.
Setting [3] is: Hepatitis B virus, 72 h, read-out: HBeAg IC50, HBV-infected PHH, culture supernatant, compound refreshed two times with 72-hour interval, alphalisa.

The IC50 is the concentration at which inhibition is half-maximal. For orientation: CC50 means the concentration at which the toxic effect on the cells reaches its halfway point. Read a high CC50 as lower toxicity to the cells.

Where two headings read alike, the source gives them in different places. Bounds are passed on as bounds.

On to `Cc1cc(C(=O)NC2CC3(C2)CC(c2nc4cc(Cl)ccc4s2)C3)ccn1` (stereo not drawn) [Example 6, N-[6-(5-chloro-1,3-benzothiazol-2-yl)spiro[3.3]heptan-2-yl]-2-methyl-pyridine-4-carboxamide], for which the figures for the IC50 with HBsAg (setting [2]) and in the data set with HBeAg (setting [3]) were 3.63 µM and 3.3 µM, respectively. For the same compound, the CC50 at 144 h in data set [1] is above 10 µM.
For `CS(=N)(=O)c1cc(C(=O)NC2CC3(C2)CC(c2nc4cc(Cl)ccc4s2)C3)ccn1` (stereo not drawn) [Example 40, N-[6-(5-chloro-1,3-benzothiazol-2-yl)spiro[3.3]heptan-2-yl]-2-(methylsulfonimidoyl)pyridine-4-carboxamide] the same measures were 2.53 µM, 2.41 µM and above 10 µM.
For `O=C(NC1CC2(C1)CC(c1nc3cc(Cl)ccc3s1)C2)C1CCS(=O)(=O)C1` (stereo not drawn) [Example 26, N-[6-(5-chloro-1,3-benzothiazol-2-yl)spiro[3.3]heptan-2-yl]-1,1-dioxo-thiolane-3-carboxamide] the same measures were 1.99 µM, 1.18 µM and above 100 µM.
Turning to `O=C(NC1CC2(C1)CC(c1nc3cc(Cl)ccc3s1)C2)c1ccnc(S(=O)(=O)CC2CC2)c1` (stereo not drawn) [Example 39, N-[6-(5-chloro-1,3-benzothiazol-2-yl)spiro[3.3]heptan-2-yl]-2-(cyclopropylmethylsulfonyl)pyridine-4-carboxamide], the results for the IC50 in the data set on HBsAg (setting [2]) and in the data set with HBeAg (setting [3]) were 0.79 µM and 0.34 µM, respectively. Further, the CC50 at 144 h in data set [1] was above 10 µM.
For `[H][C@]1(NC(=O)c2cc(C(N)=O)ncn2)C[C@@]2(C1)C[C@]([H])(c1nc3cc(Cl)ccc3s1)C2` (single isomer, unassigned) [Example 56-a, (Sa)-N6-[6-(5-chloro-1,3-benzothiazol-2-yl)spiro[3.3]heptan-2-yl]pyrimidine-4,6-dicarboxamide] the same measures were 3.29 µM, 2.47 µM and above 10 µM.
With `[H][C@]1(NC(=O)c2ccnc(S(=O)(=O)C3CC3)c2)C[C@@]2(C1)C[C@]([H])(c1nc3cc(Cl)ccc3s1)C2` (single isomer, unassigned) [Example 55-a, (Sa)-N-[6-(5-chloro-1,3-benzothiazol-2-yl)spiro[3.3]heptan-2-yl]-2-cyclopropylsulfonyl-pyridine-4-carboxamide], the IC50 in the data set on HBsAg (read-out: HBsAg IC50, HBV-infected PHH, culture supernatant, compound refreshed two times with 72-hour interval, alphalisa) turned out to be 1.56 µM; in the data set with HBeAg (read-out: HBeAg IC50, HBV-infected PHH, culture supernatant, compound refreshed two times with 72-hour interval, alphalisa), 1.09 µM. Besides, half-maximal cytotoxicity in data set [1] (CC50 at 144 h) was put at 22.5 µM.
As for `O=C(NC1CC2(C1)CC(c1nc3ccc(Cl)cc3s1)C2)C1CCS(=O)(=O)C1` (stereo not drawn) [Example 27, N-[6-(6-chloro-1,3-benzothiazol-2-yl)spiro[3.3]heptan-2-yl]-1,1-dioxo-thiolane-3-carboxamide], the IC50 in the data set with HBsAg (setting [2]) was 1.15 µM; with HBeAg (setting [3]) it was 0.56 µM. Besides, the CC50 at 144 h in data set [1] was above 100 µM.
For `CC(C)N(C)c1cc(C(=O)NC2CC3(C2)CC(c2nc4cc(Cl)ccc4s2)C3)ccn1` (stereo not drawn) [Example 49, N-[6-(5-chloro-1,3-benzothiazol-2-yl)spiro[3.3]heptan-2-yl]-2-[isopropyl(methyl)amino]pyridine-4-carboxamide] the same measures were 3.14 µM, 2.38 µM and above 10 µM.
For `O=C(NC1CC2(C1)CC(c1nc3cc(Cl)ccc3s1)C2)c1ccc(S(=O)(=O)N2CCC2)o1` (stereo not drawn) [Example 20, 5-(azetidin-1-ylsulfonyl)-N-[6-(5-chloro-1,3-benzothiazol-2-yl)spiro[3.3]heptan-2-yl]furan-2-carboxamide] the same measures were 4.88 µM, 4.06 µM and above 10 µM.
For `CN(C)c1cc(C(=O)NC2CC3(C2)CC(c2nc4cc(Cl)ccc4s2)C3)ccn1` (stereo not drawn) [Example 46, N-[6-(5-chloro-1,3-benzothiazol-2-yl)spiro[3.3]heptan-2-yl]-2-(dimethylamino)pyridine-4-carboxamide] the same measures were 4.2 µM, 3.35 µM and above 10 µM.
Take `O=C(NC1CC2(C1)CC(c1nc3cc(Cl)ccc3s1)C2)c1ccc(S(=O)(=O)NC2CC(F)(F)C2)o1` (stereo not drawn) [Example 23, N-[6-(5-chloro-1,3-benzothiazol-2-yl)spiro[3.3]heptan-2-yl]-5-[(3,3-difluorocyclobutyl)sulfamoyl]furan-2-carboxamide]: the IC50 is 1.25 µM in the data set with HBsAg (setting [2]) and 0.85 µM in the data set on HBeAg (setting [3]). Moreover, in data set [1], the CC50 at 144 h was found to be 14.3 µM.
For `O=C(NC1CC2(C1)CC(c1nc3cc(Cl)ccc3s1)C2)c1ccnc(N2CCCC2)c1` (stereo not drawn) [Example 50, N-[6-(5-chloro-1,3-benzothiazol-2-yl)spiro[3.3]heptan-2-yl]-2-pyrrolidin-1-yl-pyridine-4-carboxamide] the same measures were 9.95 µM, 9.63 µM and above 10 µM.
On the same counts, the results for `CNc1cc(C(=O)NC2CC3(C2)CC(c2nc4cc(Cl)ccc4s2)C3)ccn1` (stereo not drawn) [Example 44, N-[6-(5-chloro-1,3-benzothiazol-2-yl)spiro[3.3]heptan-2-yl]-2-(methylamino)pyridine-4-carboxamide] are 3.24 µM, 3.18 µM and above 10 µM.
For `NC(=O)c1cc(C(=O)NC2CC3(C2)CC(c2nc4cc5c(cc4s2)OCO5)C3)ccn1` (stereo not drawn) [Example 12, N4-[6-([1,3]dioxolo[4,5-f][1,3]benzothiazol-6-yl)spiro[3.3]heptan-2-yl]pyridine-2,4-dicarboxamide] the same measures were 6.58 µM, 6.53 µM and 23.3 µM.
For `O=C(NC1CC2(C1)CC(c1nc3cc(Cl)ccc3s1)C2)c1ccc(C(F)(F)F)o1` (stereo not drawn) [Example 14, N-[6-(5-chloro-1,3-benzothiazol-2-yl)spiro[3.3]heptan-2-yl]-5-(trifluoromethyl)furan-2-carboxamide], the IC50 came out at 2.48 µM with HBsAg (setting [2]) and 2.52 µM in the data set on HBeAg (setting [3]). The 50% cytotoxic concentration (CC50) at 144 h in data set [1] is above 100 µM.
For `O=C(NC1CC2(C1)CC(c1nc3cc(Cl)ccc3s1)C2)c1ccnc(NC2CC2)c1` (stereo not drawn) [Example 45, N-[6-(5-chloro-1,3-benzothiazol-2-yl)spiro[3.3]heptan-2-yl]-2-(cyclopropylamino)pyridine-4-carboxamide] the same measures were 6.08 µM, 5.18 µM and above 10 µM.
On the same counts, the results for `Nc1nc(C(=O)NC2CC3(C2)CC(c2nc4cc(Cl)ccc4s2)C3)cs1` (stereo not drawn) [Example 19, 2-amino-N-[6-(5-chloro-1,3-benzothiazol-2-yl)spiro[3.3]heptan-2-yl]thiazole-4-carboxamide] are 7.55 µM, 6.83 µM and 31.5 µM.
On the same counts, the results for `CS(=O)(=O)Cc1cc(C(=O)NC2CC3(C2)CC(c2nc4cc(Cl)ccc4s2)C3)ccn1` (stereo not drawn) [Example 7, N-[6-(5-chloro-1,3-benzothiazol-2-yl)spiro[3.3]heptan-2-yl]-2-(methylsulfonylmethyl)pyridine-4-carboxamide] are 3.33 µM, 3.09 µM and above 10 µM.
`O=C(NC1CC2(C1)CC(c1nc3cc(Cl)ccc3s1)C2)c1ccc(S(=O)(=O)NC2CCC2)o1` (stereo not drawn) [Example 22, N-[6-(5-chloro-1,3-benzothiazol-2-yl)spiro[3.3]heptan-2-yl]-5-(cyclobutylsulfamoyl)furan-2-carboxamide]: the IC50 in the data set on HBsAg (setting [2]) stood at 1.39 µM; with HBeAg (setting [3]), 1 µM. Moreover, it took 21.9 µM to reach half-maximal cytotoxicity in data set [1] (CC50 at 144 h).
